# Paper PMC12472391, “Borylated Five-Membered Ring Iminosugars: Synthesis, Spectroscopic Analysis, and Biological Evaluation for Glycosidase Inhibition and Anticancer Properties for Application in Boron Neutron Capture Therapy (BNCT)—Part 1” (Pharmaceuticals, 2025)
# What was measured:
# Test in all cases: Glycosidase inhibition, Table 6 (Laboratory 1)
# Format in all cases: biochemical
# [1] = test system: α-L-rhamnosidase (from Penicillium decumbens)
# Source text: (§1) The enzymes α-D-glucosidase (from yeast), β-D-glucosidases (from almond and bovine liver), α-D-galactosidase (from coffee beans), β-D-galactosidase (from bovine liver), α-D-mannosidase (from Jack bean), β-D-mannosidase (from snail), α-L-rhamnosidase (from Penicillium decumbens), α-L-fucosidase (from bovine kidney), trehalase (from porcine kidney), β-D-glucuronidases (from E. coli and bovine liver), amyloglucosidase (from A. niger), para-nitrophenyl glycosides, and various disaccharides were purchased from Sigma-Aldrich Co. (St. Louis, MO, USA).
# (§2) Brush border membranes were prepared from the rat small intestine according to the method of Kessler et al., and were assayed at pH 6.8 for rat intestinal maltase using maltose. For rat intestinal maltase, porcine kidney trehalase, and A. niger amyloglucosidase activities, the reaction mixture contained maltose (25 mM) and the appropriate amount of enzyme, and the incubations were performed for 10–30 min at 37 °C. The reaction was stopped by heating at 100 °C for 3 min. After centrifugation (600× g; 10 min), the resulting reaction mixture was added to the Glucose CII-test Wako (Wako Pure Chemical Ind., Osaka, Japan). The absorbance at 505 nm was measured to determine the amount of the released D-glucose. Other glycosidase activities were determined using an appropriate para-nitrophenyl glycoside as substrate at the optimum pH of each enzyme. The reaction mixture contained the substrate (2 mM) and the appropriate amount of enzyme. The reaction was stopped by the addition of Na2CO3 (400 mM). The released para-nitrophenol was measured spectrometrically at 400 nm. All reactions run in methanol.
# [2] = target: T1, β-D-glucuronidase (E. coli) (Escherichia coli, UniProt P05804)
# T1 construct: purchased Sigma-Aldrich Co
# T1 sequence (P05804 whole entry): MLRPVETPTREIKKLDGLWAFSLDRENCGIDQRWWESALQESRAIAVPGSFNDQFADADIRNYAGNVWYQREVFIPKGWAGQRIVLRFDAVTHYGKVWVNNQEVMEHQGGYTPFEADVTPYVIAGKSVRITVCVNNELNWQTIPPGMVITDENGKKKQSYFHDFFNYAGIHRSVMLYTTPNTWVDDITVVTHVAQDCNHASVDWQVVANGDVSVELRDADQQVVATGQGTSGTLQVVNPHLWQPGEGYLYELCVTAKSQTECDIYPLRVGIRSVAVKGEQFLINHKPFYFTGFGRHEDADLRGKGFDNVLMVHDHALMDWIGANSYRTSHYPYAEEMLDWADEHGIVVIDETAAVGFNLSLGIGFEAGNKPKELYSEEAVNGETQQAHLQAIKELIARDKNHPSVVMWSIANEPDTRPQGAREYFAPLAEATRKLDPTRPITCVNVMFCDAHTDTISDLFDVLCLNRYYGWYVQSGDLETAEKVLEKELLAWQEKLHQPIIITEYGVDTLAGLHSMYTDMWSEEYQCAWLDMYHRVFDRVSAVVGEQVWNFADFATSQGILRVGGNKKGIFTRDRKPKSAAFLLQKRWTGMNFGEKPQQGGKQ
# Source text: as §1, §2
# [3] = test system: β-D-glucosidase (bovine liver)
# Source text: as §1, §2
# [4] = target: T2, α,α-trehalase (porcine kidney) (Sus scrofa, UniProt I3LIR5)
# T2 construct: purchased Sigma-Aldrich Co
# T2 sequence (I3LIR5 24-583): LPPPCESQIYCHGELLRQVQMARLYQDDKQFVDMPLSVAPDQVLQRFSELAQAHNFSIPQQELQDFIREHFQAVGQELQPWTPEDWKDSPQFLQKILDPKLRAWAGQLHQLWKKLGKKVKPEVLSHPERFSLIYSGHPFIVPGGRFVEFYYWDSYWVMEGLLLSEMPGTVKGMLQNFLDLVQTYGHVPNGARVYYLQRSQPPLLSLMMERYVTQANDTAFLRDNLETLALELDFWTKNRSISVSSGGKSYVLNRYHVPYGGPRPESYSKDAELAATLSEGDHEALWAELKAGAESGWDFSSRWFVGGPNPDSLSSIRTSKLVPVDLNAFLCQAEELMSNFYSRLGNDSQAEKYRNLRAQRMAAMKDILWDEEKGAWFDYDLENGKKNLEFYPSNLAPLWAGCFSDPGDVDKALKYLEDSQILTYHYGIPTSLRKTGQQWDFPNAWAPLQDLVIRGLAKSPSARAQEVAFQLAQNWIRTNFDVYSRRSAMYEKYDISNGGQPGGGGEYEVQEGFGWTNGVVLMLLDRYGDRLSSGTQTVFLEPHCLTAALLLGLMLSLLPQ
# Source text: as §1, §2
# [5] = target: T3, α-D-mannosidase (from Jack bean) (Canavalia ensiformis, UniProt C0HJB3)
# T3 construct: purchased Sigma-Aldrich Co
# T3 sequence (C0HJB3 1-981): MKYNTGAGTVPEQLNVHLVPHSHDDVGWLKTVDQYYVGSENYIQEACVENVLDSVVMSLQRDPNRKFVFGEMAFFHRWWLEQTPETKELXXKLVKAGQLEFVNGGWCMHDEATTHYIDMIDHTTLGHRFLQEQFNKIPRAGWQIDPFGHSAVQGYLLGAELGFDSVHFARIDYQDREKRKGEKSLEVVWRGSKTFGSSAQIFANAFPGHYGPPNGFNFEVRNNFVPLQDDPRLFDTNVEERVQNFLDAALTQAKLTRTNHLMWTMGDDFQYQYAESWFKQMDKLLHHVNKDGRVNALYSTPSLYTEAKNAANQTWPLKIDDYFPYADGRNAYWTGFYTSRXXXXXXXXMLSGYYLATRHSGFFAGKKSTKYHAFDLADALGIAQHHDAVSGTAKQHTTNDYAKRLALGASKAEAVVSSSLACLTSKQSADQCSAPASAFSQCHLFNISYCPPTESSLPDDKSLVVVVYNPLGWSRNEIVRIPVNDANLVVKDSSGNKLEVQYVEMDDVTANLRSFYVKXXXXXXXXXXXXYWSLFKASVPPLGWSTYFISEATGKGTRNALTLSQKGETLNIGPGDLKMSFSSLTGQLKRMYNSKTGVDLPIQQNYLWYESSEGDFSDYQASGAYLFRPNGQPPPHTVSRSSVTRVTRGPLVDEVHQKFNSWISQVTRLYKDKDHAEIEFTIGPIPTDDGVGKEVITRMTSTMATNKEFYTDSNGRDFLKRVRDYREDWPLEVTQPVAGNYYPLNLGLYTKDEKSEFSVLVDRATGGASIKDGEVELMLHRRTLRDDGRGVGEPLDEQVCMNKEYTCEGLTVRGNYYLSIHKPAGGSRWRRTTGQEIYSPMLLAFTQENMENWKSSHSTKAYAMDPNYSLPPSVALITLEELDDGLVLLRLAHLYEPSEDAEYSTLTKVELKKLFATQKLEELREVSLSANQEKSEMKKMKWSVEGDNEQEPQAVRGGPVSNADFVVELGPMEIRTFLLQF
# Source text: as §1, §2
# [6] = target: T4, amyloglucosidase (from A. niger) (Aspergillus niger, UniProt P69328)
# T4 construct: purchased Sigma-Aldrich Co
# T4 sequence (P69328 25-640): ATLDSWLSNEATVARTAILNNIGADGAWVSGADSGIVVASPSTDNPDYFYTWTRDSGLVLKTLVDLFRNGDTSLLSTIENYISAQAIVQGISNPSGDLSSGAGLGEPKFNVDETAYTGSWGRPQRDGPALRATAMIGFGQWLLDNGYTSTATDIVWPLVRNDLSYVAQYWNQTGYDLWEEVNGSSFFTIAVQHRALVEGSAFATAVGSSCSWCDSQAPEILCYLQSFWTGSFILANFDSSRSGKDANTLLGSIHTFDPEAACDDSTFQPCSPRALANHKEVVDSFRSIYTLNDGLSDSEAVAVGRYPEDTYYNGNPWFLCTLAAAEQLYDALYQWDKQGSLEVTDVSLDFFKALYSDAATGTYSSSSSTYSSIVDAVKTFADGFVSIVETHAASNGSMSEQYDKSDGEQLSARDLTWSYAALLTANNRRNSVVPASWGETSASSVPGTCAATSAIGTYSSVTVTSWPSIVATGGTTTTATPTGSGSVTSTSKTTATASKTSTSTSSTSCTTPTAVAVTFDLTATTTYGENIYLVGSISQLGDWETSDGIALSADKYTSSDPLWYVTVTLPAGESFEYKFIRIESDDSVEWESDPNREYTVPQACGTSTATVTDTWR
# Source text: as §1, §2
Molecule,"α-L-Rhamnosidase P. decumbens, inhibition % at 100 μM [1]",inhibition at 100 µM [2] [%],"β-D-Glucosidase Bovine Liver, inhibition % at 100 μM [3]",inhibition at 100 µM [4] [%],inhibition at 100 µM [5] [%],inhibition at 100 µM [6] [%],"α-L-Rhamnosidase P. decumbens, inhibition % at 1000 μM [1]",inhibition at 1000 µM [2] [%],"β-D-Glucosidase Bovine Liver, inhibition % at 1000 μM [3]",inhibition at 1000 µM [4] [%],inhibition at 1000 µM [5] [%],inhibition at 1000 µM [6] [%],further results
"CC1(C)O[C@H]2O[C@H]3[C@@H]([C@H]2O1)N(Cc1ccc(B2OC(C)(C)C(C)(C)O2)cc1)C[C@H]3O [para 6, N-(4-Methylphenylboronic acid pinacol ester)-3,6-dideoxy-3,6-imino-1,2-O-isopropylidene-α-D-gulofuranose]",^c NI ^d (1.4%),3.2,^c NI ^d (13%),0,0,0,–,–,–,–,–,–,–
"CC1(C)O[C@H]2O[C@H]3[C@@H]([C@H]2O1)N(Cc1ccccc1)C[C@H]3O [Compound 3, N-Benzyl-3,6-dideoxy-3,6-imino-1,2-O-isopropylidene-α-D-gulofuranose]",^c NI ^d (0.5%),2.4,^c NI ^d (31.9%),0,0.9,0,–,–,–,–,–,–,–
"OB(O)c1ccc(CN2CC(O)C3OC(O)C(O)C32)cc1 [para 7, N-(4-Methylphenylboronic acid)-3,6-dideoxy-3,6-imino-D-gulofuranose]",–,–,–,–,–,–,^a NI ^b (15.8%),17.8,^a NI ^b (38.8%),0,0,2.7,–
"N[C@@H](Cc1ccc(B(O)O)cc1)C(=O)O [^10B-BPA, reference compound]",^c NI ^d (0%),–,^c NI ^d (14.2%),–,–,–,–,–,–,–,–,–,"β-D-Glucuronidase E. coli, inhibition % at 100 μM ([2]; 100 μM): ^c NI ^d (2.4%); α,α-Trehalase Porcine Kidney, inhibition % at 100 μM ([4]; 100 μM): ^c NI ^d (0%); α-D-Mannosidase Jack Bean, inhibition % at 100 μM ([5]; 100 μM): ^c NI ^d (0%); Amyloglucosidase A. niger, inhibition % at 100 μM ([6]; 100 μM): ^c NI ^d (0%)"
"N[C@@H](Cc1ccc(B(O)O)cc1)C(=O)O [BPA, 4-borono-L-phenylalanine, reference compound]",^c NI ^d (0%),–,^c NI ^d (0%),–,–,–,–,–,–,–,–,–,–
"borocaptate sodium [BSH, reference compound]",–,–,–,–,–,–,^a NI ^b (0.2%),–,^a NI ^b (15%),–,–,–,"β-D-Glucuronidase E. coli, inhibition % at 1000 μM ([2]; 1000 μM): ^a NI ^b (6%); α,α-Trehalase Porcine Kidney, inhibition % at 1000 μM ([4]; 1000 μM): ^a NI ^b (4.2%); α-D-Mannosidase Jack Bean, inhibition % at 1000 μM ([5]; 1000 μM): ^a NI ^b (7.9%); Amyloglucosidase A. niger, inhibition % at 1000 μM ([6]; 1000 μM): ^a NI ^b (0%)"
"OC[C@H](O)[C@@H]1[C@H](O)[C@H](O)CN1Cc1ccc(B(O)O)cc1 [para 8, N-(4-Methylphenylboronic acid)-1,4-dideoxy-1,4-imino-L-gulitol]",–,–,–,–,–,–,^a NI ^b (26.3%),22.9,^a NI ^b (27.1%),0,0,3.6,–
"OC[C@H](O)[C@@H]1[C@H](O)[C@H](O)CN1Cc1ccccc1 [Compound 5, N-Benzyl-1,4-dideoxy-1,4-imino-L-gulitol]",^c NI ^d (1.5%),0,^c NI ^d (3.3%),0,4.4,2.1,–,–,–,–,–,–,–
"OC1O[C@@H]2[C@H]([C@H]1O)N(Cc1ccccc1)C[C@H]2O (stereo partly drawn) [Compound 4, N-Benzyl-3,6-dideoxy-3,6-imino-D-gulofuranose]",–,–,–,–,–,–,^a NI ^b (0%),7,^a NI ^b (16.4%),0,7.5,0.2,–
